Measurements as given in patent US20250281456A1, “METHODS OF TREATING CANCER BY INHIBITING BACTERIAL DNAK TO RESTORE ACTIVITIES OF ANTICANCER DRUGS” (University of Maryland, Baltimore, priority 2022, published 2025).
Where a SMILES comes first, the peptide text is derived from it. [ ]: non-standard residue; d: D form. Ac6c = NC1(C(=O)O)CCCCC1

Key:
Escherichia coli DnaK = Escherichia coli DnaK (Escherichia coli, UniProt P0A6Y8); conditions: previously demonstrated; cited from earlier work
[1] = tested on: primary murine cancer cells constitutively expressing DnaK
human Hsp70 = human Hsp70 (Homo sapiens, UniProt P0DMV8); conditions: previously demonstrated; cited from earlier work
Chain of human Hsp70 (P0DMV8 whole entry): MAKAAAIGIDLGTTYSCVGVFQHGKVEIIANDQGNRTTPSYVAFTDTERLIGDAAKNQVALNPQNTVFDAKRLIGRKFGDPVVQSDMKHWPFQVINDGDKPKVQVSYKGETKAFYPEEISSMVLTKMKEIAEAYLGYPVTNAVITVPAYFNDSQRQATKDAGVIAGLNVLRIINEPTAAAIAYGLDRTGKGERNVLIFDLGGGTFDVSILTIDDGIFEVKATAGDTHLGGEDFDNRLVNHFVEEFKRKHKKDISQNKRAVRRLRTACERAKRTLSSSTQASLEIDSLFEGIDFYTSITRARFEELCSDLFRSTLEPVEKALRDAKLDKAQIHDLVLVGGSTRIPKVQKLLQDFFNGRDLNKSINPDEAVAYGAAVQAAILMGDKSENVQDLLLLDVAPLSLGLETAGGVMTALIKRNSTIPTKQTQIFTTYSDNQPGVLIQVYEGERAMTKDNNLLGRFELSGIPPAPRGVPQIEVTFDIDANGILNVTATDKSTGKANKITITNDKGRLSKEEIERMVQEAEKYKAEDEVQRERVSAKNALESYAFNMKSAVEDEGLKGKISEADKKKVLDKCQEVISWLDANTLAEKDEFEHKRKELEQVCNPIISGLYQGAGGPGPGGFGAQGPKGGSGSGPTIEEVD

[2] = target: eM-DnaK (Mycoplasma fermentans DnaK); test: Surface plasmon resonance (SPR) binding of ARV-1502 to immobilized eM-DnaK; conditions: 2274.9 RU eM-DnaK on CM5 chip, HBS-EP, 25° C., preliminary kinetic analysis
Experimental: (§1) FIG. 17. A) Direct binding of eM-DnaK to ARV-1502 as determined by surface plasmon resonance (SPR). Association of ARV-1502 at different concentrations on 2274.9 response units of eM-DnaK immobilized on a CM5 biosensor chip proceeded at a flow rate of […] for 250 sec, followed by a 600 sec dissociation in HBS-EP.
Surface plasmon resonance (SPR) binding studies of DnaK and ARV-1502 were performed at 25° C. on a BIAcore T100 System (BIAcore, Inc., Piscataway, NY). We used as assay buffer HBS-EP, containing 10 mM HEPES, 150 mM NaCl, 0.05% surfactant P20, pH 7.4, 3 mM EDTA. DnaK (2274.9 RUs) was immobilized on CM5 sensor chips using the amine-coupling chemistry recommended by the manufacturer. Analytes were introduced into the flow cells at 35 μl/min in the running buffer. Association and dissociation were assessed for 250 seconds and 600 seconds. Resonance signals were corrected for nonspecific binding by subtracting the background of the control flow-cell. After each analysis, the sensor chip surfaces were regenerated with 10 mM glycine solution (pH 2.0) with MgCl 1M and equilibrated with the buffer before the next injection.

AGS cells = test: cells
Experimental: (§2) FIG. 11. […] Parallel wells of untreated cells were used as negative control. Cell viability was assessed by using the trypan blue assay. Percentage of alive cells for each treatment are calculated as percentage using the untreated cell as reference. […] Statistical differences were tested using Student's t test. All statistical tests were two sided. p=***<0.001, **<0.01, *<0.05, ns=not significant.
as §2, with “14.” for “11.”, “p=*<0.05,” for “p=***<0.001,”, “***<0.001.” for “*<0.05, ns=not significant.”
(§3) To determine the effects of eM and eF-DnaKs on HCT116 and AGS cells lines treated with different anti-cancer drugs, cells were plated 200,000 cells/well in 6-wells plates. After 24 h, both eM-DnaK and eF-DnaK were added to the cultures at a concentration of 10 ug/ml. […] Parallel cultures of untreated cells were the negative controls. […] After 48 h of treatment with the anti-cancer drugs, cell monolayers were washed in PBS, trypsinized and cell viability was measured using the trypan blue assay. The trypan blue exclusion assay allows for a direct identification and enumeration of live (unstained) and dead (blue) cells in the given population.
(§4) More in detail, we pre-treated both exogenous DnaKs with ARV-1502 (25 μg/ml) before adding them to the culture of HCT116 or AGS cells. After 3 h of incubation the complex was added to the culture. After 24 h the cells were treated with the anti-cancer drugs and then subjected to count with trypan blue as previously described. Parallel cultures of cells treated with the drugs and DnaKs not complexed with ARV-1502 were used as control.

HCT116 cells [3] = test: cells
Experimental: as §2
as §2, with “14.” for “11.”, “p=*<0.05,” for “p=***<0.001,”, “***<0.001.” for “*<0.05, ns=not significant.”
as §3, §4

HCT116 cells [4] = test: Western blot of eM-DnaK entry into HCT116 cells after incubation with ARV-1502; format: cell-based, human; conditions: eM-DnaK incubated 3 hours with ARV-1502, added to cells 24 hours, then cisplatin 48 hours
Experimental: as §1
Western blot was performed to verify the expression of DnaK in the mouse primary cancer cells, in the internalization of the exogenous DnaKs and to validate DnaK binding with ARV-1502. […] After 72 h since eM-DnaK treatment, cell monolayers were washed in cold PBS, trypsinized and resuspended in RIPA lysis buffer (Sigma-Aldrich, St. Louis, MO) in the presence of protease inhibitors (Sigma-Aldrich, St. Louis, MO). The protein concentration was measured by the Bradford assay (Bio-Rad Laboratories, Hercules, CA). Thirty micrograms of protein were resolved by SDS/PAGE, transferred to a polyvinylidene difluoride (PVDF) membrane using trans-blot turbo transfer system (Bio-Rad Laboratories, Hercules, CA), blocked in 5% nonfat dried milk in Tris-Buffered Saline (TBS) and probed overnight with either a mouse mAb against the V5 tag (#R960-25, Thermo Fisher Scientific, Walthman, MA) to detect the presence of eM-DnaK or a mouse mAb against […] (8H10D10) (#3700, Cell Signaling Technology, Danvers, MA). […]

Chain of Escherichia coli DnaK (P0A6Y8 whole entry): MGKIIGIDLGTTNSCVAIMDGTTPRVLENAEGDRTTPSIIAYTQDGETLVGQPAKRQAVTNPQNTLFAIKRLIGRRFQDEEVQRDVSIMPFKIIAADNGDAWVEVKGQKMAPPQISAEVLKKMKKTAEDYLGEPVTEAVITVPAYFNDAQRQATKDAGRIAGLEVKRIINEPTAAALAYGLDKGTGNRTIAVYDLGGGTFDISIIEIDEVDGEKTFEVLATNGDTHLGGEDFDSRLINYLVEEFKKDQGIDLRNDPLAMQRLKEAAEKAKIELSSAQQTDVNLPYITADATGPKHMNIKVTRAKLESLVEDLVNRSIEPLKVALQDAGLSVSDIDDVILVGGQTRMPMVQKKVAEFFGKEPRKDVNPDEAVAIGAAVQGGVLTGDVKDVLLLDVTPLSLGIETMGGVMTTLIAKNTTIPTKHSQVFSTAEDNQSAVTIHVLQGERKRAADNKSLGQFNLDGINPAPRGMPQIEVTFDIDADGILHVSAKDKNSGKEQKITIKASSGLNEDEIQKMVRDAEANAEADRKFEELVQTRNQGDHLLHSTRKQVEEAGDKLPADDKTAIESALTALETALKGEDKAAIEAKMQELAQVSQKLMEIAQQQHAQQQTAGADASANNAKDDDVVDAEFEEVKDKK

CC(C)C[C@H](NC(=O)[C@H](Cc1ccc(O)cc1)NC(=O)[C@@H]1CCCN1C(=O)[C@H](CCCNC(=N)N)NC(=O)[C@@H]1CCCN1C(=O)[C@H](CCCCN)NC(=O)[C@H](CC(=O)O)NC(=O)[C@@H]1CCCN1C(=O)[C@H](CCCNC(=N)N)NC(=O)C1(N)CCCCC1)C(=O)N1CCC[C@H]1C(=O)N[C@@H](CCCNC(=N)N)C(=O)N1CCC[C@H]1C(=O)N[C@@H](CCCNC(=N)N)C(=O)N1CCC[C@H]1C(=O)N1CCC[C@H]1C(=O)N[C@@H](CCCNC(=N)N)C(=O)N1CCC[C@H]1C(=O)N[C@H](C(=O)N[C@@H](CCCNC(=N)N)C(N)=O)C(C)C [ARV-1502] (H-[Ac6c]RPDKPRPYLPRPRPPRPVR-NH2; N-terminus and C-terminus assumed)
DnaK binding and ATPase activity (Escherichia coli DnaK): bind the Escherichia coli DnaK substrate-binding domain and to reduce its ATPase activity | inhibitory effect ([1]; ARV-1502 alone): 11% | improved anti-cancer effect ([1]; ARV-1502 with cisplatin or 5FU versus drug alone, for both drugs): 25% | interaction with human Hsp70 (human Hsp70): without interacting with human Hsp70 | Kd [2]: 1.9 µM | reduction in cell viability (AGS cells; ARV-1502 alone, on average (data not shown)): 5-8% | restoration of anti-cancer activity of cisplatin and 5FU (AGS cells; in the presence of eF-DnaK pre-treated with ARV-1502 (25 μg/ml)): able to restore the drugs' anti-cancer activity | restoration of anti-cancer activity of cisplatin and 5FU (AGS cells; in the presence of eM-DnaK pre-treated with ARV-1502 (25 μg/ml)): restoration of the original anti-cancer activity of each drug | reduction in cell viability (HCT116 cells [3]; HCT116, ARV-1502 alone, on average (data not shown)): 5-8% | restoration of anti-cancer activity of cisplatin and 5FU (HCT116 cells [3]; HCT116, in the presence of eF-DnaK pre-treated with ARV-1502 (25 μg/ml)): able to restore the drugs' anti-cancer activity | restoration of anti-cancer activity of cisplatin and 5FU (HCT116 cells [3]; HCT116, in the presence of eM-DnaK pre-treated with ARV-1502 (25 μg/ml)): restoration of the original anti-cancer activity of each drug | eM-DnaK entry into HCT116 cells (HCT116 cells [4]): does not prevent eM-DnaK entry into HCT116 cells
